Test: Prostate case study: DCE CT tissue concentration-time curve fitted to 2-, 3- and 4-compartment mamillary distributed-parameter models
Type: in vivo, patient
Settings: value (percent CV); for t1: vascular transit time
Source text: It is instructive to apply the present mamillary model to a tumor study case to further illustrate some physiological aspects of the model, and also for comparison with another model. Ca(t) was sampled at the iliac arteries simultaneously in the same CT scan as the prostate tissue concentration-time curve, Ctiss(t). The contrast medium used was the x-ray dye lopamidol and the region of interest for Ctiss was drawn over the prostate gland. Example imaging and patient protocols that were used are, for example, expounded upon in T. S. Koh, V. Zeman, J. Darko, T. Lee, M. F. Milosevic, M. Haider, P. Warde, and I. W. T. Yeung, “The inclusion of capillary distribution in the adiabatic tissue homogeneity model of blood flow”, Phys. Med. Biol., vol. 46, pp. 1519-1538, 2001.
The ‘goodness-of-fit’ between model and data can be given by the χ^2 statistic as detailed in equation (11).
A 2-compartment distributed-parameter model has 4 adjustable parameters (i.e F, t1, k12 and k21), and each additional compartment introduces two additional parameters given by the rate constants.
The tissue concentration-time curve Ctiss(t) was sampled at a region of interest over the prostate tumor. […] A test statistic to compare the goodness-of-fit of a more complex model (χ^2c) with that of a less complex (reduced) model (χ^2r) can be given by equation (12), namely [formula] which follows the F-distribution. The degrees of freedom dfr and dfc are those associated with the reduced and complex models, respectively. […] Correspondingly, large values of F* would justify the more complex model.
The fitted Ctiss(t) curves using 2-, 3- and 4-compartment distributed-parameter models are shown in FIG. 5 and their corresponding impulse residue functions are shown in FIG. 6. The values for the parameters adjusted in the model fittings together with their error estimates (as percent CVi) are listed in Table 1.

[1] = 2-compartment model, rate constant for tracer transfer
[2] = 3-compartment model, rate constant for tracer transfer
[3] = 4-compartment model, rate constant for tracer transfer

K12 [1]: 0.744 (4) min^−1
K21 [1]: 2.183 (4) min^−1
t1 (2-compartment model): 0.717 (3) min
K12 [2]: 1.581 (17) min^−1
K13 [2]: 0.259 (28) min^−1
K21 [2]: 1.854 (15) min^−1
K31 [2]: 0.818 (25) min^−1
t1 (3-compartment model): 0.688 (9) min
K12 [3]: 1.579 (20) min^−1
K13 [3]: 0.264 (36) min^−1
K14 [3]: 0.000 (53) min^−1
K21 [3]: 1.853 (17) min^−1
K31 [3]: 0.816 (32) min^−1
K41 [3]: 0.000 (44) min^−1
t1 (4-compartment model): 0.688 (11) min
SMILES: C[C@H](O)C(=O)Nc1c(I)c(C(=O)NC(CO)CO)c(I)c(C(=O)NC(CO)CO)c1I [lopamidol]

— patent US20050187462A1, “Dynamic contrast enhanced imaging using a mamillary distributed parameter model” (priority 2004, published 2005)
